Results on 6 compounds are retold here after patent US20040077880A1 (priority 2000, published 2004).

Data set [1] in a line: logP determination by HPLC (EEC Directive 79/831 Annex V. A8). To be noted: gradient method, acetonitrile/0,1% aqueous phosphoric acid. Type of data set: physicochemical. As to the method: The logP values were determined in accordance with EEC Directive 79/831 Annex V. A8 by HPLC (Gradient method, acetonitrile/0,1% aqueous phosphoric acid)
The next data set relates to Phytophthora infestans. Type of data set: in vivo. To be noted: tomato plants, protective spray, application rate 50 g/ha, evaluation three days after inoculation; 100% = no infection.

In general, chromatographic logP refers to lipophilicity estimated from chromatographic retention. Higher therefore signals higher lipophilicity. In turn, `Cc1noc(C)c1S(=O)(=O)n1c(C)c(Br)c(Br)c1C#N` [Example 1, 3,4-dibromo-1-[(3,5-dimethyl-4-isoxazolyl)-sulfonyl]-5-methyl-1H-pyrrole-2-carbonitrile] returned a chromatographic logP in data set [1] of 3.62.

For `Cc1noc(C)c1S(=O)(=O)n1c(Br)c(Br)c(Br)c1C#N` [Example 3], the chromatographic logP in data set [1] came to 3.58.

Regarding `Cc1noc(C)c1S(=O)(=O)n1cc(Cl)c(Cl)c1C#N` [Example 11], the chromatographic logP in data set [1] was 3.13.

Consider `Cc1noc(C)c1S(=O)(=O)n1c(Br)c(Br)c(Br)c1C#N` [drawing 9], for which the Efficacy in % with Phytophthora infestans is given as 98%.

Compound `Cc1noc(C)c1S(=O)(=O)n1cc(Cl)c(Cl)c1C#N` [drawing 10] displayed an Efficacy in % with Phytophthora infestans of 95%.

`Cc1noc(C)c1S(=O)(=O)n1cc(Cl)c(Cl)c1C#N` [drawing 11]: the Efficacy in % in the data set on Phytophthora infestans stood at 94%.
